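1) Cells in 96-well plates. 2) Compound, 48 h, 5 concentrations. 3) Linear interpolation between surrounding doses. 4) Unreached endpoint = highest concentration. The concentration for 50% growth inhibition is given as GI50.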 The source made the active and inactive calls. Cut-off read from the data, not from the text of the source: active = GI50 up to about 1.1 µM and inactive = higher.
What was measured:
Test in all cases: inhibition of tumour cell growth, NCI panel, 48 h
HT-29 = tested on: HT-29
U-251 = tested on: U-251
SNB-19 = tested on: SNB-19
SF-268 = tested on: SF-268
T47D = tested on: T47D
SR = tested on: SR
NCI/ADR-RES = tested on: NCI/ADR-RES
SK-MEL-28 = tested on: SK-MEL-28
MOLT-4 = tested on: MOLT-4
HCT-116 = tested on: HCT-116
HCT-15 = tested on: HCT-15
HCC 2998 = tested on: HCC 2998
NCI-H23 = tested on: NCI-H23
786-0 = tested on: 786-0
HOP-62 = tested on: HOP-62
HOP-92 = tested on: HOP-92
Malme-3M = tested on: Malme-3M
SF-539 = tested on: SF-539
SF-295 = tested on: SF-295
LOX IMVI = tested on: LOX IMVI

SMILES | GI50 (HT-29) | GI50 (U-251) | GI50 (SNB-19) | GI50 (SF-268) | GI50 (T47D) | GI50 (SR) | GI50 (NCI/ADR-RES) | GI50 (SK-MEL-28) | GI50 (MOLT-4) | GI50 (HCT-116) | GI50 (HCT-15) | GI50 (HCC 2998) | GI50 (NCI-H23) | GI50 (786-0) | GI50 (HOP-62) | GI50 (HOP-92) | GI50 (Malme-3M) | GI50 (SF-539) | GI50 (SF-295) | GI50 (LOX IMVI)
CCCCC[C@@H]1OCO[C@@]2(C)/C=C(C)\C=C/C(=O)O[C@H]([C@@H](C)[C@@H](O)[C@H](C)[C@@]3(O)C[C@@H](O[C@H]4C[C@@H](O)[C@H](O)[C@@H](C)O4)[C@H](C)[C@@H](C)O3)[C@@H](OC)/C=C\C=C(\C)C[C@@H]1[C@@H]2O (stereo in doubt) | < 5 nM (active) | < 5 nM (active) | 99.5 nM (active) | < 5 nM (active) | < 5 nM (active) | < 5 nM (active) | 500 nM (active) | 72.4 nM (active) | < 5 nM (active) | < 5 nM (active) | 500 nM | < 5 nM (active) | 500 nM (active) | < 5 nM (active) | 57.3 nM (active) | < 5 nM (active) | < 5 nM (active) | < 5 nM (active) | < 5 nM (active) | < 5 nM (active)
Nc1nccc(-c2c[nH]c3cc(Br)ccc23)n1 [MERIDIANIN D] | 20300 nM (inactive) | 30800 nM (inactive) | 20700 nM (inactive) | 31000 nM (inactive) | 30400 nM (inactive) | 17300 nM (inactive) | 30800 nM (inactive) | 30500 nM (inactive) | 24700 nM (inactive) | 18600 nM (inactive) | 25100 nM | 25100 nM (inactive) | 25200 nM (inactive) | 21500 nM (inactive) | 30000 nM (inactive) | 23700 nM (inactive) | 34800 nM (inactive) | 32600 nM (inactive) | 35300 nM (inactive) | 25300 nM (inactive)
C[C@H]1CC[C@]2(NC1)O[C@H]1C[C@H]3[C@@H]4CC[C@H]5C[C@@H](O[C@@H]6O[C@H](CO)[C@H](O[C@@H]7O[C@H](CO)[C@@H](O)[C@H](O[C@@H]8OC[C@@H](O)[C@H](O)[C@H]8O)[C@H]7O[C@@H]7O[C@H](CO)[C@@H](O)[C@H](O)[C@H]7O)[C@H](O)[C@H]6O)CC[C@]5(C)[C@H]4CC[C@]3(C)[C@H]1[C@@H]2C [TOMATINE] | 1910 nM (inactive) | 1020 nM (active) | 1240 nM (inactive) | 1550 nM (inactive) | 1970 nM (inactive) | 2420 nM (inactive) | 1900 nM (inactive) | 1260 nM (inactive) | 2410 nM (inactive) | 1700 nM (inactive) | 2480 nM | 993 nM (active) | 1650 nM (inactive) | 1290 nM (inactive) | 1630 nM (inactive) | 1990 nM (inactive) | 605 nM (active) | 1560 nM (inactive) | 1050 nM (active) | 2170 nM (inactive)

— ChEMBL document CHEMBL1201862, “PubChem BioAssay data set” (2004)
